Data set [1] is described as follows: Specific gravity of tamponading agents. It is filed as physicochemical. An excerpt: Soluble Mixtures of Partially Fluorinated Ethers. The presence of the hydrocarbon chain in the structure of formula (I) has a large effect on the solubility properties of the molecule. The partially fluorinated ethers of formula (I) are completely miscible with certain perfluorocarbons, such as perfluoro-n-octane (“PFnO”) (C8F18), perfluoroethylcyclohexane (C8F16), perfluorodecalin (C10F18), and perfluorophenanthrene (C14F24). The solubility of formula (I) liquids with perfluorocarbons enables the design of soluble mixtures that can be used as long-term postoperative tamponade agents that have a specific gravity less than 1.6 or 1.5 such that the probability of retinal damage due to weight is reduced. For example, the commonly used intraoperative perfluorocarbon, PFnO, has a specific gravity of about 1.7. Thus, in order to make a soluble mixture of PFnO and DFPE (which has a specific gravity of about 1.3) that has a specific gravity less than 1.6 or 1.5, then one can use a greater amount of DFPE to reduce the specific gravity of the soluble mixture. For example, a mixture comprising about 25% PFnO and about 75% DFPE has a specific gravity of 1.39 at body temperature (see Table 1). This general strategy of mixing lighter partially fluorinated ether liquids with perfluorocarbon liquids can be conducted with any of the formula (I) liquids and a perfluorocarbon liquid, as long as they are miscible. Further, one can also make soluble mixtures between different partially fluorinated ethers in order to obtain a liquid tamponade agent that has a preferred specific gravity.
Further, one can use the strategy of mixing partially fluorinated ether liquids of formula (I) with lighter tamponade liquids, such as silicone, in order to resolve buoyancy problems and to increase tamponade force. As described previously, because silicone liquids are lighter than water and are immiscible in water, silicone liquids form a globule that rises above aqueous solutions. To rectify this problem, partially fluorinated ether liquids can be mixed with silicone liquids and oils such that soluble mixture has a specific gravity greater than 1.0. In one embodiment, partially fluorinated ether and silicone solutions have a specific gravity between about 1.00 and about 1.06. For example, DFPE can be mixed with silicone oil (such as dimethyl siloxane) and be soluble in silicone oil up to about 20% DFPE (weight to weight (w/w)). Thus, the invention contemplates DFPE and silicone mixtures where DFPE comprises between about 10% and about 20% of the solution and where silicone comprises between about 90% and about 80% of the solution. In one embodiment, a soluble mixture comprises between about 15% and about 18% (w/w) DFPE and between about 85% and about 82% (w/w) silicone oil. In another embodiment, a soluble mixture of about 18% (w/w) DFPE and about 82% (w/w) silicone oil has a specific gravity of about 1.02 at 37° C. In another embodiment, a soluble mixture of about 20% (w/w) DFPE and about 80% (w/w) silicone oil has a specific gravity of about 1.02-1.03. Perfluorocarbon liquids cannot be easily mixed with silicone liquids because perfluorocarbon liquids, not having any hydrocarbons, are only soluble up to less than about 1000 ppm with silicone.

A short description of data set [2]: Tamponade force calculated from specific gravity difference to fluid vitreous. It is filed as physicochemical. As to conditions: difference in specific gravity to fluid vitreous (1.03) multiplied by volume of tamponade agent (5 mL). Set-up: unit not given beside the values.
Data set [3] relates to eye. The note with it: in vivo. The text has this: FIG. 4 and FIG. 5 show results indicating the long term biocompatibility of the eye to decafluoro-di-n-pentyl ether. […] Thus, the above characteristics, combined with the specific-gravity characteristics of the partially fluorinated ethers of formula (I), allow for their long-term use in the eye without damage, and with improved efficacy, convenience and biocompatibility. […] The invention contemplates the use of liquid tamponade agents comprising partially fluorinated ethers according to formula (I) for postoperative periods such as: hours, days, weeks, 1 month, 2 months, 3 months, greater than 3 months, greater than 6 months, up to 1 year, up to 2 years or more. Period greater than 1 year are not generally required for tamponade.

The format of data set [4] is physicochemical. The procedure: (§1) DFPE liquid is stable. […] Further, a mixture of DFPE in silicone (20% DFPE (w/w) and 80% silicone (w/w)) is stable through daily temperature cycling (20-40° C.) through at least 18 months. Further with respect to water insolubility, a single drop of DFPE (about 50 ppm) added to one liter of water remains visible, unchanged and undissolved for long periods of time (at least greater than 8 months).

Data set [5] can be described thus: Water insolubility (single drop in one liter of water). The note with it: single drop (about 50 ppm) added to one liter of water. It is filed as physicochemical. The procedure: as §1
Data set [6] deals with eye. Put plainly: Gas chromatography of DFPE recovered from the eye. Type of data set: in vivo. As to conditions: after one month of residence time in the eye.
Data set [7] is classed as physicochemical. An excerpt: Soluble Mixtures of Partially Fluorinated Ethers. The presence of the hydrocarbon chain in the structure of formula (I) has a large effect on the solubility properties of the molecule. The partially fluorinated ethers of formula (I) are completely miscible with certain perfluorocarbons, such as perfluoro-n-octane (“PFnO”) (C8F18), perfluoroethylcyclohexane (C8F16), perfluorodecalin (C10F18), and perfluorophenanthrene (C14F24). The solubility of formula (I) liquids with perfluorocarbons enables the design of soluble mixtures that can be used as long-term postoperative tamponade agents that have a specific gravity less than 1.6 or 1.5 such that the probability of retinal damage due to weight is reduced. For example, the commonly used intraoperative perfluorocarbon, PFnO, has a specific gravity of about 1.7. Thus, in order to make a soluble mixture of PFnO and DFPE (which has a specific gravity of about 1.3) that has a specific gravity less than 1.6 or 1.5, then one can use a greater amount of DFPE to reduce the specific gravity of the soluble mixture. For example, a mixture comprising about 25% PFnO and about 75% DFPE has a specific gravity of 1.39 at body temperature (see Table 1). […]
This is another data set of the same source.

Data set [8] can be described thus: Viscosity of tamponading agents. It is filed as physicochemical.
A short description of data set [9]: Refractive index of tamponading agents. The note with it: Table 1. Type of data set: physicochemical.
The nature of data set [10]: Boiling point of tamponading agents. As to conditions: Table 1.
The mark [11] stands for this setting: approximate, no temperature stated.

For `FC(F)(F)C(F)(F)CCCOCCCC(F)(F)C(F)(F)F` [DFPE, decafluoro-di-n-pentyl ether], the “Specific Gravity” value in [1] (Table 1) is given as 1.31; in [1] (setting [11]) it was “about 1.3”; in data set [1] (at body temperature), 1.31. Further, the “Tamponade Force” value in data set [2] was 1.4. In the data set on eye [3], the “amplitudes of electroretinographic responses” value is recorded as “does not exhibit any negative effects”. For the same molecule, the “implicit times of electroretinographic responses” value with eye [3] was “does not exhibit any negative effects”. Moreover, the “stability to sunlight exposure” value in [4] is “stable to sunlight exposure”. For the same molecule, the stable over time entry in data set [4] (ambient temperature) was “at least 2 years”. For the same molecule, in data set [4] (heat exposure), the “stable when exposed to heat” value is “up to 95 °C”. The “time a single drop remains visible, unchanged and undissolved in water” value in [5] is reported as “greater than 8 months”. In the data set on eye [6], the “changes in composition of DFPE recovered from the eye” value is listed as “less than 0.05%”. Moreover, the “solubility in silicone oil” value in [7] was “up to 20 % (w/w)”.
On to `FC(F)(F)C(F)(F)C(F)(F)C(F)(F)C(F)(F)C(F)(F)C(F)(F)C(F)(F)F` [PFnO, perfluoro-n-octane], for which the “Specific Gravity” value in data set [1] (Table 1) is on record as 1.76; in data set [1] (setting [11]), “about 1.7”. Further, in [8], the “Viscosity (centistrokes at 25° C.)” value stood at 0.8 centistrokes. For the same molecule, the “Refractive Index” value in data set [9] stood at 1.27. Besides, in data set [2], the “Tamponade Force” value was 3.65. Further, in data set [10], the “Boiling Point” value was 105 °C.
Consider `FC1(F)C(F)(F)C(F)(F)C2(F)C(F)(F)C(F)(F)C(F)(F)C(F)(F)C2(F)C1(F)F` (stereo not shown) [Perfluorodecalin, perfluorodecalin], for which the “Specific Gravity” value in data set [1] (Table 1) was found to be 1.94. Besides, the “Viscosity (centistrokes at 25° C.)” value in [8] is on record as 2.7 centistrokes. The “Refractive Index” value in [9] turned out to be 1.31. Further, the “Tamponade Force” value in data set [2] is 4.55. Moreover, the “Boiling Point” value in data set [10] turned out to be 177 °C.
The corresponding values for `Fc1c(F)c(F)c2c(c1F)c(F)c(F)c1c(F)c(F)c(F)c(F)c12` [Perfluorophenanthrene, perfluorophenanthrene] are 2.03, 8.03 centistrokes, 1.28, 5.0 and 215 °C.
